The text below walks through data of patent EP4029501A1, “COMBINATION OF POLYAROMATIC UREA DERIVATIVES AND GLUCOCORTICOID OR HDAC INHIBITOR FOR THE TREATMENT OF DISEASES OR CONDITIONS ASSOCIATED WITH MUSCLE CELLS AND/OR SATELLITE CELLS” (Anagenesis Biotechnologies, priority 2021, dated 2022).

What all share (assay type): cell-based, human
One test has as its system Pax7 positive cells. The test is described as follows: Dose response assay of combination treatments with Givinostat or Prednisolone: percentage of Pax7-positive cells. The following applies: for drop of satellite cells content: compound alone at 0.3 µM, DMD hMPs (figure 6); for loss of Pax7 positive cells: dose-dependent, highest concentration 10 µM (Figure 6 legend). The source says: (§1) • Figure 1 - the workflow of the myotube assay, aiming at monitoring myogenic activity of compounds and effect on satellite-like cells. • Figure 2 - the myogenic activity of compound (i) in a dose-response assay, as shown by an increase of the total myotube surface/well upon increase of compound concentration. • Figure 3 - the positive effect on satellite-like cells of compound (i) in a dose-response assay, as shown by the increase of Pax7-positive cell percentage upon increase of compound concentration. • Figure 4 - representative images for the dose-response of the total myotube area readout for compound (i), corresponding to Figure 2. • Figure 5 - representative images for the dose-response of the percentage of Pax7-positive cell readout for compound (i), corresponding to Figure 3. • Figure 6 - Dose-response curve on muscle progenitors derived from DMD hiPSC. Treatment of muscle progenitors derived from DMD hiPSC with Prednisolone or Givinostat alone inducing a beneficial effect on α-actinin expression (representative of the myotube surface) and a loss of nearly 50 % of Pax7 positive cells (representative of the population of satellite cells) in a dose-dependent manner. The highest concentration represented is 10 µM. The arrows show the point a 0.3 µM. Efficacy values correspond to the highest score of normalized myotube surface (y-axis). Activity values correspond to the half maximal effective concentration (EC50; x-axis). The curve fits were calculated using a 4-parameter logistic regression model (Graphpad PRISM software). Error bars show standard deviation (SD). The picture on the right panel is representative of the highest myotube surface value of the dose-response curve. • Figures 7-9 - Dose-response curve on muscle progenitors derived from DMD hiPSC. Treatment in a dose-dependent manner of muscle progenitors derived from DMD hiPSC with indicated compound alone or with combination with Prednisolone or Givinostat at 0.3 µM. The combination induced an improvement of myogenic capabilities seen with α-actinin expression (representative of the myotube surface) and harbor no worsening of the Pax7 positive cells (representative of the population of satellite cells) compared to Prednisolone or Givinostat alone. The highest concentration of DRC is 10 µM.
(§2) Figure 1 provides an example of a Myotube assay workflow. At day 0, hMP are thawed and 3.1 million cells are plated into a T75-flask coated with hESC-qualified Matrigel™ (Corning) in SkGM proliferating medium (PromoCells), supplemented with 5 µM Y-27632 (Tocris Bioscience). On day 2, SkGM proliferating medium is refreshed. On day 4, hMP are harvested and transferred into a 384-well plate coated with collagen type I at a density of 3500 cells/well in a DMEM-based medium, containing 5% of knockout serum replacement (Gibco), 1% PenStrep (Gibco), 1% MEM NEAA (Gibco) and 0.1 mM 2-mercaptoethanol (Gibco) (hereafter "K5 medium") and 5 µM Y-27632. Compounds to be tested are then added in the medium and incubated for 3 days at 37°C. On day 7, cells are fixed and immunostained. For example, myotubes (alpha-actinin staining) and satellite-like (Pax7 staining) cells can be analyzed for total myotube area per well or Pax7-positive cell quantification.
DMD hMPs were put in the Myotube assay according to the workflow described in example 2.1. In particular, Prednisolone (Sigma) or Givinostat (Exclusive Chemistry) were added in all conditions at a fixed concentration equal to 0.3 µM in combination with compounds az or bw or q tested in DRC at 8 concentrations ranging from 4.5 nM to 10 µM, starting from day 4. Also, as control, DRCs with the same range of concentrations were done with Prednisolone alone, Givinostat (figure 6) alone or compounds az or bw or q alone (figures 7 to 9). […]

The test system of test [1] is muscle progenitors derived from DMD hiPSC. The test is described as follows: Dose response assay of combination treatments with Givinostat or Prednisolone: total myotube area. The following applies: for improvement of potency: versus alone; for potency: change in words; for EC50: Homo sapiens, Myotube, compound alone, DRC 4.5 nM to 10 µM, DMD hMPs (figure 6), read-out: potency (EC50) on myotube surface.
Description: as §1
Efficacy values correspond to the highest score of normalized myotube surface (y-axis). Activity values correspond to the half maximal effective concentration (EC50; x-axis). The curve fits were calculated using a 4-parameter logistic regression model (Graphpad PRISM software). Error bars show standard deviation (SD). The picture on the right panel is representative of the highest myotube surface value of the dose-response curve.
as §2
DMD hMPs were put in the Myotube assay according to the workflow described in example 2.1. […]

Test [2] has the same test system. The test is described as follows: Myotube assay: total myotube area per well (alpha-actinin staining). The conditions noted are these: Homo sapiens, Myotube, 72 h, DMD or WT cell source not given; for Emax: efficacy, MA = normalized Myotube Area, 3 days incubation; for EC50: myogenic activity, half-maximal generation of myotubes, 10 points dose-response 1.5 nM to 30 µM, 3 days. The method in brief: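 DMD hiPSC-derived muscle progenitors (NCRM-1 background) plated at 3500 cells/well in K5 medium with 5 µM Y-27632, then exposed to compound at 1.5 nM–30 µM for 3 days at 37°C. Cells fixed on day 7, alpha-actinin-immunostained and total myotube area per well quantified; duplicates averaged, EC50 and normalized myotube area derived.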

Where [3] appears, read: in combination with Givinostat at 0.3 µM.
Setting [4] is: in combination with Prednisolone at 0.3 µM.
Setting [5] is: DRC 4.5 nM to 10 µM in combination with Givinostat at 0.3 µM.
Where [6] appears, read: DRC 4.5 nM to 10 µM in combination with Prednisolone at 0.3 µM.

By Emax is commonly meant the maximal effect, on the per cent scale that the assay sets. The EC50 is the concentration giving half of the maximal effect.

Where only a bound is given, the exact number is not on record here.

In the case of `Cc1ccc(-n2nc(C(C)(C)C)cc2NC(=O)Nc2ccc(Oc3ccnc4[nH]c(=O)cnc34)cc2C(F)(F)F)cc1` [(az), 1-(3-(tert-butyl)-1-(p-tolyl)-1H-pyrazol-5-yl)-3-(4-((3-oxo-3,4-dihydropyrido[2,3-b]pyrazin-8-yl)oxy)-2-(trifluoromethyl)phenyl)urea], in the test with Pax7 positive cells (setting [3]), the satellite cell population entry was “at least maintained”. Moreover, in the test with Pax7 positive cells (setting [4]), the “satellite cell population increase” value stood at 1.5 fold. Also, the total myotube surface entry in test [1] (setting [5]) and in test [1] (setting [6]) was “increased the total myotube surface” throughout. In addition, the improvement of potency entry in test [1] (setting [3]) and in test [1] (setting [4]) was “two fold” throughout. In addition, the Emax in test [2] is no less than 75%. In test [2], this compound showed an EC50 of 500 to 1000 nM.
Regarding `CSc1cc(Oc2ccnc3[nH]c(=O)cnc23)ccc1NC(=O)Nc1cc(C(C)(C)C)nn1-c1cccc(F)c1` [(bw), 1-(3-(tert-butyl)-1-(3-fluorophenyl)-1H-pyrazol-5-yl)-3-(2-(methylthio)-4-((3-oxo-3,4-dihydropyrido[2,3-b]pyrazin-8-yl)oxy)phenyl)urea], in the test on Pax7 positive cells (compound alone, DRC 4.5 nM to 10 µM), the satellite cell pool entry is listed as “decrease of satellite cell pool which is only seen at high concentration”. Moreover, the satellite cell population entry in the test with Pax7 positive cells (setting [3]) and in the test on Pax7 positive cells (setting [4]) was “the decrease of satellite cell pool which is only seen at high concentration of treatment with compound bw alone is slightly diminished” throughout. Moreover, the total myotube surface entry in test [1] (setting [5]) and in test [1] (setting [6]) was “increased the total myotube surface” in each case. For the same compound, the potency result in test [1] (setting [3]) is “improved”; in test [1] (setting [4]) it was “slightly decreased”. The compound further had an Emax in test [2] of no less than 75%. In test [2], this compound returned an EC50 of less than 500 nM.
As for `CC(C)(C)c1cc(NC(=O)Nc2ccc(Oc3ccnc4[nH]c(=O)cnc34)cc2F)sn1` [(q), 1-(3-(tert-butyl)isothiazol-5-yl)-3-(2-fluoro-4-((3-oxo-3,4-dihydropyrido[2,3-b]pyrazin-8-yl)oxy)phenyl)urea], the satellite cell population entry with Pax7 positive cells (setting [3]) and in the test with Pax7 positive cells (setting [4]) was “maintenance of the satellite cells in all conditions” in each case. The total myotube surface entry in test [1] (setting [5]) and in test [1] (setting [6]) was “strongly increased” throughout. Also, the improvement of potency in test [1] (setting [3]) is listed as 1.4 fold; in test [1] (setting [4]), 5 fold. In test [2], this compound gave an Emax of 50 to 75%. Besides, the EC50 in test [2] was 1000 to 5000 nM.
In test [2], `O=C(Nc1ccc(Oc2ccnc3[nH]c(=O)cnc23)cc1F)Nc1c2c(nn1-c1ccccc1)CCC2` [(x), 1-(2-fluoro-4-((3-oxo-3,4-dihydropyrido[2,3-b]pyrazin-8-yl)oxy)phenyl)-3-(2-phenyl-2,4,5,6-tetrahydrocyclopenta[c]pyrazol-3-yl)urea] registered an Emax of 25 to 50% and an EC50 of no less than 5000 nM.
In test [2], `O=C(Nc1ccc(Oc2ccnc3[nH]c(=O)cnc23)cc1F)Nc1c(-c2ccccc2)nn2c1CCC2` [(y), 1-(2-fluoro-4-((3-oxo-3,4-dihydropyrido[2,3-b]pyrazin-8-yl)oxy)phenyl)-3-(2-phenyl-5,6-dihydro-4H-pyrrolo[1,2-b]pyrazol-3-yl)urea] showed an Emax of 25 to 50% and an EC50 of no less than 5000 nM.
Consider `CSc1cc(Oc2ccnc3[nH]c(=O)cnc23)ccc1NC(=O)Nc1nnc(C(C)(C)C)s1` [(z), 1-(5-(tert-butyl)-1,3,4-thiadiazol-2-yl)-3-(2-(methylthio)-4-((3-oxo-3,4-dihydropyrido[2,3-b]pyrazin-8-yl)oxy)phenyl)urea], for which, in test [2], the Emax is no less than 75% and the EC50 is no less than 5000 nM.
Take `CCN(CC)Cc1ccc2cc(COC(=O)Nc3ccc(C(=O)NO)cc3)ccc2c1` [Givinostat, reference compound]: the “drop of satellite cells content” value with Pax7 positive cells is “about 50%”. Moreover, the “loss of Pax7 positive cells” value in the test with Pax7 positive cells (compound alone) is recorded as roughly 50%. Besides, in test [1], the EC50 was no more than 170 nM.
The like results for `C[C@]12C=CC(=O)C=C1CC[C@@H]1[C@@H]2[C@@H](O)C[C@@]2(C)[C@H]1CC[C@]2(O)C(=O)CO` [Prednisolone, reference compound] were, in that order, “about 50%”, roughly 50% and no more than 170 nM.
